# Data as given in EP2439195B1, “NAPHTHALENE CARBOXAMIDE DERIVATIVES AS INHIBITORS OF PROTEIN KINASE AND HISTONE DEACETYLASE, PREPARATION METHODS AND USES THEREOF” (Shenzhen Chipscreen Biosciences, Ltd., priority 2009, dated 2010).
# Like-named read-outs stand apart in the source and are kept apart here.
# What was measured:
# MCF-7 = test: Tumor cell proliferation (MTS), MCF-7; format: cell-based; conditions: Homo sapiens, MCF7; MCF-7, 72 hours; read-out: Gl50 µM in MCF-7
# Description: (§1) Tumor cells were trypsinized and plated into 96-well plates at 3,000 per well and incubated in complete medium with 10% FBS for 24 hours. Compounds to be tested and vehicle control were added, and the final concentration of compound is in the range of 100 nmol/L to 100 µmol/L. The compounds were incubated for 72 hours in complete medium. The MTS reagent (Promega) was added according to the instruction, incubated for 2 hours at 37°C in CO2 incubator. Then absorbance at 490nm is read using an ELISA plate reader.
# HCT-8 = test: Tumor cell proliferation (MTS), HCT-8; format: cell-based; conditions: Homo sapiens; HCT-8, 72 hours; read-out: Gl50 µM in HCT-8
# Description: as §1
# A-498 = test: Tumor cell proliferation (MTS), A-498; format: cell-based; conditions: Homo sapiens, A498; A-498, 72 hours; read-out: Gl50 µM in A-498
# Description: as §1
# HUVEC cells = test: VEGF dependent cell proliferation (MTS); format: cell-based; conditions: Homo sapiens, VEGF 165 (50ng/ml), 72 hours, serum-free medium, read-out: Gl50 nM (VEGF ligand-dependent cell proliferation)
# Description: HUVEC cells were plated into 96-well plates at 6,000 per well and after 24 hours incubated with serum-free medium for 2 hours. Compounds to be tested and VEGF 165 (50ng/ml) were added and incubated for 72 hours in serum-free medium. The effects on cell proliferation were determined by MTS method (Promega) according to the instruction. Incubation was performed for 2 hours at 37°C in CO2 incubator, and absorbance at 490nm was determined using an ELISA plate reader.
# total HDAC enzyme = test: In vitro total HDAC enzyme activity (HDAC Fluorimetric Assay/Drug Discovery Kit, HeLa cell nuclear extract); format: biochemical
# Description: The in vitro total HDAC enzyme activity was determined by HDAC Fluorimetric Assay/Drug Discovery Kit (BIOMOL) according to manufacture's instruction. The principle of the experiment is as follows: under the action of histone deacetylase (in the experiment, HeLa cell nuclear extract, which was rich in a variety of subtypes of HDAC, was used), an acetyl group is removed from a special substrate Fluor de Lys, thus the free amino is exposed. Upon Developer is added, the substrate will produce fluorescence. For the fluorescence, excitation wavelength is 360nm, and emission wavelength is 460nm. More fully the substrate deacetylated, more higher the fluorescence induced. In the absence of inhibitors, the fluorescence value is taken as the control; when inhibitor is existed, fluorescence value induced will be reduced, while in the case no enzyme is existed (corresponding to the completely inhibition of enzyme activity) the fluorescence value is blank. Generally, after suppression the fluorescence values will be between the control and blank. When analysis is made, blank will be used as 0, and the control will be used as 1. Smaller value means higher inhibitory activity. 1. Add Assay buffer, diluted trichostatin A and test inhibitor to appropriate wells of the microtiter plate. Following table lists the amounts used for each regent of various assay types.
# 2. Add diluted HeLa nucleoprotein extract to all wells except those that are marked as "blank". 3. Allow diluted Fluor de Lys™ Substrate and the samples in the microtiter plate to equilibrate to 25°C. 4. Initiate HDAC reactions by adding diluted substrate (25 µl) to each well and mixing thoroughly. 5. Allow reactions to proceed for 30 minutes and then stop them by addition of Fluor de Lys™ Developer (50 µl). Incubate plate at room temperature (25°C) for 10-15 min. 6. Read fluorescence of samples on a microtiter-plate reading fluorimeter at a excitation wavelength of 369 nm and a emitted wavelength of 451 nm.
# Bel-7402 = test: Tumor cell proliferation (MTS), Bel-7402; format: cell-based; conditions: Homo sapiens; Bel-7402, 72 hours; read-out: Gl50 µM in Bel-7402
# Description: as §1
# human PDGFRβ = biological target: T1, human PDGFRβ (Homo sapiens, UniProt P09619); test: PDGF dependent cell proliferation (MTS); format: cell-based
# T1 construct: expressed in transfected cells
# T1 sequence (P09619 33-1106): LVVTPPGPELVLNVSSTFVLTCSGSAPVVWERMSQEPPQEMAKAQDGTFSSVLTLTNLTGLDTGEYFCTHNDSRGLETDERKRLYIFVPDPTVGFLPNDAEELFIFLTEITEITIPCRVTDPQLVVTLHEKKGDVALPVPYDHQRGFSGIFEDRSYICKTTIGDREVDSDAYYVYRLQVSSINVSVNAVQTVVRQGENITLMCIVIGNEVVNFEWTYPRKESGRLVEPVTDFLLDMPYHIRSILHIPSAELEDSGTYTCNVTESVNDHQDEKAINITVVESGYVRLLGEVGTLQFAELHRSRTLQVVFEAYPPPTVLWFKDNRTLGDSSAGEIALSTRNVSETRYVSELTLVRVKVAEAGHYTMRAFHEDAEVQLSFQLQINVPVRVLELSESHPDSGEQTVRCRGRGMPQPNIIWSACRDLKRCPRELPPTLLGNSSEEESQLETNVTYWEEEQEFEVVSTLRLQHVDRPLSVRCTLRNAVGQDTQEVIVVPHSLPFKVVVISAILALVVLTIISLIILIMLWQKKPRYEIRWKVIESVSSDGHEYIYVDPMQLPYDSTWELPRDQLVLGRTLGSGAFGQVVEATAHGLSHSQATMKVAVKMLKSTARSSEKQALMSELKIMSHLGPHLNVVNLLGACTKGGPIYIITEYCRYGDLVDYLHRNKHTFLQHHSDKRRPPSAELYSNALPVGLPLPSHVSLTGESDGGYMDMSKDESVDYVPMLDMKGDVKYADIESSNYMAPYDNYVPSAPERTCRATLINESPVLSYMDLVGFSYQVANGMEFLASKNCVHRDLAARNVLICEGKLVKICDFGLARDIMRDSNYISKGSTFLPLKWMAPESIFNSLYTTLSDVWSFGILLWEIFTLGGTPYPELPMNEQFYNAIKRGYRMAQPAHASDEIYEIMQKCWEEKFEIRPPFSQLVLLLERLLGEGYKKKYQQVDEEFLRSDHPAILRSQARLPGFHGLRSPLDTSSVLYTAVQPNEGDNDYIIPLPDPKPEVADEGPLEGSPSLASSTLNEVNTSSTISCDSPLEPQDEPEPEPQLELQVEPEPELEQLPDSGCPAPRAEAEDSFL
# Description: NIH-3T3 mouse fibroblasts cell line engineered to stably express human PDGFRβ was constructed and used to evaluate PDGF dependent cell proliferation. PDGFRβ NIH-3T3 cells were plated into 96-well plates at 5,000 per well and incubated overnight with serum-free medium after 24 hours. Compounds to be tested and PDGF BB (50ng/ml) were added and incubated for 72 hours in serum-free medium. The effects on proliferation were determined by MTS method (Promega) according to the instruction. Incubation was performed for 2 hours at 37°C in CO2 incubator, and absorbance at 490nm was measured using an ELISA plate reader.
# Class I HDAC = test: HDAC subtype selectivity reporter gene assay (P21 reporter, HeLa cells); format: cell-based; conditions: Homo sapiens, read-out: Class I HDAC (P21 reporter assay) Fold Induction at 10µM
# Description: Different HDAC subtypes can bind with different transcriptional factors and involve in expression regulation of various genes. Suitable regulation elements for transcriptional factors are selected to construct reporter genes, which can be used to evaluate the selective inhibition of inhibors on HDAC subtypes. Briefly, HeLa cells were seeded in 96-well plates the day before transfection to give a confluence of 50-80% when transfection. Cells were transfected with one of reporter gene plasmid containing a p21-promoter sequence or response element upstream of a luciferase gene construct using FuGene6 transfection reagent according to the manufacturer's instruction (Roche). For normalizing the transfection efficiency, a GFP expression plasmid was cotransfected. After 24 hours compounds or the vehicle control (DMSO) were added. 24 hours later the cells were harvested and lysed, and the amount of the luciferase was evaluated using luciferase assay kits (Promega) according to the manufacturer's instructions.
# A549 = test: Tumor cell proliferation (MTS), A549; format: cell-based; conditions: Homo sapiens; A549, 72 hours; read-out: Gl50 µM in A549
# Description: as §1
# [1] = test system: human SSMC7721 liver cancer; test: Nude mice tumor transplanted from human SSMC7721 liver cancer (Example 56); format: in vivo; conditions: for TGI (%): tumor growth inhibition
# Description: Female nu/nu mice of 18∼20g were fed by normal diet for 3 days. Then the cultured SSMC7721 human liver cancer cells were implanted into the armpit of 50 mice. […] Each group had 8 mice. One group was treated with vehicle. One group was treated with Sutent, the positive control drug. Two groups were treated with compound 33 at different concentrations. The other two groups were treated with compound 37 at different concentrations. Each group was dosed orally once a day for 30 days. […] The tumor growth inhibition of each group was calculated using the following formula: {[(the average tumor weight of control group)-(the average tumor weight of test group)]/(the average tumor weight of control group)} × 100%. [formula] The experimental results are shown in Table 10 and Figure 6. Table10
# human HCT-8 colon cancer = test: Nude mice tumor transplanted from human HCT-8 colon cancer (Example 55); format: in vivo; conditions: for TGI (%): tumor growth inhibition
# Description: Female nu/nu mice of 18∼20g were fed by normal diet for 3 days. Then the cultured HCT-8 human colon cancer cells were implanted into the armpit of 50 mice. […] One group was treated with vehicle. One group was treated with Sutent, the positive control drug. Two groups were treated with compound 33 at different concentrations. The other two groups were treated with compound 37 at different concentrations. Compound 33 was administered twice a day with an interval of 6 hours. For other groups, administration was performed once a day. Each group was dosed orally for 20 days. […] The tumor growth inhibition of each group was calculated using the following formula: {[(the average tumor weight of control group)-(the average tumor weight of test group)]/(the average tumor weight of control group)} × 100%. [formula] The experimental results are shown in Table 9 and Figure 5.
# [2] = read-out: Gl50 nM (PDGF ligand-dependent cell proliferation); PDGFRβ NIH-3T3 cells, PDGF BB (50ng/ml), 72 hours, serum-free medium
# [3] = PDGFRβ NIH-3T3 cells, PDGF BB (50ng/ml), 72 hours, serum-free medium; read-out: Gl50 nM (PDGF ligand-dependent cell proliferation)
# [4] = 30 mg/kg orally once a day for 30 days
# [5] = 60 mg/kg orally once a day for 30 days
# [6] = 30 mg/kg orally once a day for 20 days
# [7] = 60 mg/kg orally once a day for 20 days
SMILES,IC50 (MCF-7) [µM],IC50 (HCT-8) [µM],IC50 (A-498) [µM],IC50 (HUVEC cells) [µM],% inhibition of total HDAC enzyme activity at 30µM (total HDAC enzyme) [%],IC50 (Bel-7402) [µM],IC50 (human PDGFRβ; [2]) [µM],"fold induction at 10 µM (Class I HDAC; HeLa, 24 h)",IC50 (A549) [µM],IC50 (human PDGFRβ; [3]) [µM],"fold induction at 10 µM (Class I HDAC; 10µM, HeLa cells, 24 hours)",other results
COc1cc2ncnc(Oc3ccc4c(C(=O)NCc5ccc(C(=O)Nc6ccccc6N)cn5)cccc4c3)c2cc1OC [Compound 25],6.1,4.9,14.7,0.013,47.9,30,0.069,12.1,30,,,
"COc1ccc2c(Oc3ccc4c(C(=O)Nc5ccc(F)cc5N)cccc4c3)ccnc2c1 [Compound 32, N-(2-amino-4-fluorophenyl)-6-(7-methoxyquinolin-4-yloxy)-1-naphthamide]",15.9,6.6,7.5,0.002,21.7,17.3,,,8.3,0.02,1.8,
"COc1cc2nccc(Oc3ccc4c(C(=O)Nc5ccccc5N)cccc4c3)c2cc1OC [Compound 35, N-(2-aminophenyl)-6-(6,7-dimethoxyquinolin-4-yloxy)-1-naphthamide]",13.3,8.9,9.1,0.001,19.3,19.5,,,7.7,0.005,1.2,
"COc1cc2nccc(Oc3ccc4c(C(=O)Nc5ccc(F)cc5N)cccc4c3)c2cc1OC [Compound 36, N-(2-amino-4-fluorophenyl)-6-(6,7-dimethoxyquinolin-4-yloxy)-1-naphthamide]",8.9,4.1,4.2,0.002,14.4,12.1,,,7.4,0.003,1.2,
"COc1cc2nccc(Oc3ccc4c(C(=O)NCc5ccc(C(=O)Nc6ccccc6N)cc5)cccc4c3)c2cc1OC [Compound 37, N-(4-((2-aminophenyl)carbamoyl)benzyl)-6-(6,7-dimethoxyquinolin-4-yloxy)-1-naphthamide]",30,30,30,0.004,35.9,30,,,30,0.159,3,"Tumor weight [1, 4]: 1.45 ± 0.58 g; Body weight (g) end [1, 4]: 25.3 ± 0.9 g; Body weight (g) start [1, 4]: 20.7 ± 1.2 g; TGI (%) [1, 4]: 35.6%; Tumor weight [1, 5]: 1.28 ± 0.51 g; Body weight (g) end [1, 5]: 24.3 ± 1.1 g; Body weight (g) start [1, 5]: 21.4 ± 0.6 g; TGI (%) [1, 5]: 43.3%; Tumor weight (human HCT-8 colon cancer; [6]): 3.89 ± 1.19 g; Body weight (g) end (human HCT-8 colon cancer; [6]): 23.6 ± 2.2 g; Body weight (g) start (human HCT-8 colon cancer; [6]): 20.6 ± 0.8 g; TGI (%) (human HCT-8 colon cancer; [6]): 36.5%; Tumor weight (human HCT-8 colon cancer; [7]): 3.36 ± 0.80 g; Body weight (g) end (human HCT-8 colon cancer; [7]): 24.1 ± 2.1 g; Body weight (g) start (human HCT-8 colon cancer; [7]): 20.8 ± 0.8 g; TGI (%) (human HCT-8 colon cancer; [7]): 45.1%"
COc1cc2nccc(Oc3ccc4c(C(=O)NCc5ccc(C(=O)Nc6ccccc6N)cn5)cccc4c3)c2cc1OC [Compound 38],9.4,8,6.9,0.025,39.3,30,0.074,3.1,30,,,
